Test results published in patent US11827628B2, “Compositions and methods for inhibition of the JAK pathway” (Rigel Pharmaceuticals, Inc., priority 2005, dated 2023).
Structures can show the parent of a compound that is named as a salt. Where two headings read alike, the source gives them in different places.

How the values were obtained:
[1] = system: IL-4 stimulated expression of CD23 in human Ramos B cells (JAK-1 and JAK-3); assay: Assay for Ramos B-Cell Line Stimulated with IL-4 (CD23 upregulation, FACS); assay type: cell-based; conditions: read-out: IC50, Example 41
Outline: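 Read-out: anti-CD23-PE flow cytometry on Ramos B cells, giving IC50. Cells (5×10^4 per point, RPMI + 5% serum) get compound or DMSO for 1 h at 37 °C, then IL-4 50 units/mL final for 20-24 h.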

[2] = system: up-regulation of ICAM-1 (CD54) by IFNγ in U937 human monocytic cells; assay: U937 IFNγ ICAM1 FACS Assay; assay type: cell-based; conditions: ICAM-1 expression by FACS, read-out: IC50, Example 44
Description: The activity of the compounds of the invention may additionally be characterized by assaying the effect of the 2,4-substituted pyrimidinediamine compounds described herein on A549 lung epithelial cells and U937 cells. A549 lung epithelial cells and U937 cells up-regulate ICAM-1 (CD54) surface expression in response to a variety of different stimuli. Therefore, using ICAM-1 expression as readout, test compound effects on different signaling pathways can be assessed in the same cell type. Stimulation with IL-1β through the IL-1β receptor activates the TRAF6/NFκB pathway resulting in up-regulation of ICAM-1. IFNγ induces ICAM-1 up-regulation through activation of the JAK1/JAK2 pathway. The up-regulation of ICAM-1 can be quantified by flow cytometry across a compound dose curve and EC50, values are calculated.
U937 human monocytic cells up-regulate ICAM-1 (CD54) surface expression in response to a variety of different stimuli. Therefore, using ICAM-1 expression as readout, compound effects on different signaling pathways can be assessed in the same cell type. IFNγ up-regulates ICAM-1 through activation of the JAK/Stat pathway. In this example, the up-regulation of ICAM-1 by IFNγ was assessed.
The U937 human monocytic cell line was obtained from ATCC of Rockville Maryland, catalog number CRL-1593.2, and cultured in RPM1-1640 medium containing 10% (v/v) FCS. U937 cells were grown in 10% RPMI. The cells were then plated at a concentration of 100,000 cells per 160 μL in 96 well flat bottom plates. […] Then 4 μL of test compound was transferred to 76 μL of 10% RPMI resulting in a 10× solution (100 μM test compound, 5% DMSO). For control wells, 4 μL of DMSO was diluted into 76 μL 10% RPMI.
The assay was performed in duplicate with 8 points (8 3-fold dilution concentrations from […]) and with 4 wells of DMSO only (control wells) under stimulated conditions and 4 wells of DMSO only under unstimulated conditions.
The diluted compound plate was mixed 2× using a multimek (Beckman Coulter of Brea, California) and then 20 μL of the diluted compounds was transferred to the 96 well plate containing 160 μL of cells, which were then mixed again twice at low speeds. The cells and compounds were then pre-incubated for 30 minutes at 37° C. with 5% CO2.
The 10× stimulation mix was made by preparing a 100 ng/mL solution of human IFNγ in 10% RPMI. […] The cells were kept under conditions for stimulation for 18-24 hours at 37° C. with 5% CO2.
The cells were transferred to a 96 well round bottom plate for staining and then kept on ice for the duration of the staining procedure. Cells were spun down at 1000 rpm for 5 minutes at 4° C., following which the supernatant was removed. Following removal of the supernatant, 1 μL APC conjugated mouse anti-human ICAM-1 antibody was added per 100 μL FACS buffer. The cells were then incubated on ice in the dark for 30 minutes. Following incubation, […] of FACS buffer was added and the cells were centrifuged at 1000 rpm for 5 minutes at 4° C., following which the supernatant was removed. After removal of the supernatant, 200 μL of FACS buffer was added and the cells were resuspended. After suspension, the cells were centrifuged at 1000 rpm for 5 min at 4° C. Supernatant was then removed prior to resuspension of the cells in 150 μL FACS buffer.
Detection was performed using a BD LSR I System Flow Cytometer, purchased from BD Biosciences of San Jose, California The live cells were gated for live scatter and the geometric mean of ICAM-APC was measured (Becton-Dickinson CellQuest software version 3.3, Franklin Lakes, NJ). Both % live cells and ICAM-1 expression was analyzed. The assays for the test compounds were carried out in parallel with a control compound of known activity.

[3] = Ramos B-cell line stimulated with IL-4, CD23 expression by FACS
[4] = U937 cells stimulated with IFNγ
[5] = Ramos B cells stimulated with IL-4, CD23 expression by FACS
[6] = Homo sapiens, Ramos, Ramos B-cell line stimulated with IL-4, CD23 expression by FACS
[7] = Homo sapiens, U-937, U937 cells stimulated with IFNγ

Compound | IC50 [1, 3] | IC50 [2, 4] | IC50 [2, 7] | other results
CNS(=O)(=O)c1cc(Nc2ncc(F)c(Nc3ccc(OCc4ccccn4)cc3)n2)ccc1C [Compound I-161, 5-Fluoro-N2-[3-(N-methylaminosulfony)-4-methylphenyl]-5-fluoro-N4-[4-(2-pyridinyl)methyleneoxyphenyl]-2,4-pyrimidinediamine] | 314 nM | 2410 nM |  | 
N#CCOc1ccc(Nc2nc(Nc3cccc(S(N)(=O)=O)c3)ncc2F)cc1-c1ccn(CC#N)n1 [Compound I-53, N2-(3-Aminosulfonylphenyl)-N4-[4-cyanomethoxy-3-(1-cyanomethylpyrazol-3-yl)phenyl]-5-fluoro-2,4-pyrimidinediamine] |  |  | 12200 nM | IC50 [1, 6]: 236 nM
Cc1ccc(Nc2ncc(F)c(Nc3ccc4c(c3)N(Cc3ccccn3)C(=O)CO4)n2)cc1S(N)(=O)=O [Compound V-3, N2-(3-Aminosulphonyl-4-methylphenyl)-5-fluoro-N4-[3-oxo-4-(2-pyridylmethy)-benz[1,4]oxazin-6-yl]-2,4-pyrimidinediamine] |  | 13700 nM |  | IC50 [1, 5]: 664 nM
Cc1ccc(Nc2ncc(F)c(Nc3ccc(OCC#N)c(-c4ccn(CC#N)n4)c3)n2)cc1S(N)(=O)=O [Compound I-54, N2-(3-Aminosulfonyl-4-methylphenyl]-N4-[4-cyanomethoxy-3-(1-cyanomethylpyrazol-3-yl)phenyl]-5-fluoro-2,4-pyrimidinediamine] |  |  | 7160 nM | IC50 [1, 6]: 277 nM
Cc1ccc(Nc2ncc(F)c(Nc3ccc(OCC#N)cc3)n2)cc1S(=O)(=O)NC(=O)C(C)C [Compound I-39, N4-(4-Cyanomethyleneoxy)phenyl-5-fluoro-N2-(3-isobutyrylaminosulfonyl-4-methyl)phenyl-2,4-pyrimidinediamine sodium Salt] |  |  |  | IC50 ([1]; Ramos B-cell line stimulated with IL-4, CD23 expression by FACS, sodium salt): 841 nM; IC50 ([2]; U937 cells stimulated with IFNγ, sodium Salt): 9320 nM
CNS(=O)(=O)c1cc(Nc2ncc(F)c(Nc3ccc(OCc4cc(C)on4)c(C)c3)n2)ccc1C [Compound I-239, 5-Fluoro-N2-[3-N-(methyl)aminosulfonyl-4-methylphenyl]-N4-[3-methyl-4-(5-methylisoxazol-3-yl)methyleneoxyphenyl]-2,4-pyrimidinediamine] | 240 nM | 7060 nM |  | 
CCC(=O)NS(=O)(=O)c1cccc(Nc2ncc(F)c(Nc3ccc(OCc4nc(C)no4)cc3)n2)c1 [Compound I-264] | 599 nM | 15000 nM |  | 
N#CCOc1ccc(Nc2nc(Nc3cccc(S(N)(=O)=O)c3)ncc2F)cc1CO [Compound I-50, N2-(3-Aminosulfonylphenyl)-N4-(4-cyanomethoxy-3-hydroxymethylphenyl)-5-fluoro-2,4-pyrimidinediamine] |  |  | 25100 nM | IC50 [1, 6]: 373 nM
Cc1cc(COc2ccc(Nc3nc(Nc4cccc(S(=O)(=O)N(Cc5oc(=O)oc5C(C)(C)C)Cc5oc(=O)oc5C(C)(C)C)c4)ncc3F)cc2)no1 [Compound I-249, N2-{3-[N-N-Di-[(5-t-Butyl-1,3-dioxolene-2-one-4-yl)methylene]]aminosulfonylphenyl}-5-fluoro-N4-[4-(5-methylisoxazol-3-yl)methyleneoxyphenyl]-2,4-pyrimidinediamine] | 512 nM | 11000 nM |  | 

More lines, main results first:

IC50 [1, 3] | IC50 [2, 4] | IC50 [2, 7] | Compound | other results
 | 345 nM |  | NC(=O)NCc1cccc(Nc2nc(Nc3ccc(S(N)(=O)=O)cc3)ncc2F)c1 [III-113, N4-(3-aminocarbonylaminomethyl)phenyl-N2-(4-aminosulfonyl)phenyl-5-fluoro-2,4-pyrimidinediamine] | IC50 [1, 5]: 1030 nM
 |  | 9270 nM | Cc1c(Cl)cc(Nc2ncc(F)c(Nc3ccc(OC(F)(F)F)c(Cl)c3)n2)cc1S(N)(=O)=O [VI-14, N2-(3-Aminosulfonyl-5-chloro-4-methylphenyl)-N4-(3-chloro-4-trifluoromethoxyphenyl)-5-fluoro-2,4-pyrimidinediamine] | IC50 ([1]; Homo sapiens, Ramos, Ramos B cells stimulated with IL-4, CD23 expression by FACS): 413 nM
347 nM | 3050 nM |  | CCN(CC)CCNS(=O)(=O)c1ccc(Nc2ncc(F)c(Nc3ccc(Cc4ccncc4)cc3)n2)cc1 [III-67, N2-[4-(2-N,N-Diethylaminoethyl)aminosulfonylphenyl)-5-fluoro-N4-[4-(4-pyridinylmethyl)phenyl]-2,4-pyrimidinediamine] | 
300 nM | 834 nM |  | CCC(=O)NCc1ccc(Nc2nc(Nc3ccc(C)c(S(N)(=O)=O)c3)ncc2F)cc1 [III-37, N2-(3-aminosulfonyl-4-methyl)phenyl-N4-(4-ethylcarbonylaminomethyl)phenyl-5-fluoro-2,4-pyrimidinediamine] | 
